Consider 30 compounds from patent US20060009493A1, “Indolinone hydrazides as c-Met inhibitors” (Sugen, Inc., priority 2003, published 2006).

In this experiment the target is T1, GST fusion protein containing the Met kinase domain (Homo sapiens, UniProt P08581).
T1 construct: Purified GST fusion protein containing the Met kinase domain, Sugen, Inc
T1 sequence (P08581 1078-1345 limits assumed): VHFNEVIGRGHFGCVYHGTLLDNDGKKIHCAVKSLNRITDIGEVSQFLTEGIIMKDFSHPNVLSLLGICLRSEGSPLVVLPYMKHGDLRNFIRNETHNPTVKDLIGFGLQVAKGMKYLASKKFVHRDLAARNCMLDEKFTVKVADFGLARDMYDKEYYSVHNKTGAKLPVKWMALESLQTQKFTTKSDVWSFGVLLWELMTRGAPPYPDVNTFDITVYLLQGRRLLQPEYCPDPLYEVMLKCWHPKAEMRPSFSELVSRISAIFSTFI
As to the kind of experiment: MET Transphosphorylation Assay (ELISA, poly(Glu,Tyr) 4:1 substrate). The experiment is classed as biochemical. Particulars: met transphosphorylation of poly(glutamic acid:tyrosine 4:1) substrate; two values in a cell separated by '/'. As for the experimental part:
MET Transphosphorylation Assay
This assay is used to measure phosphotyrosine levels on a poly(glutamic acid:tyrosine (4:1)) substrate as a means for identifying agonists/antagonists of met transphosphorylation of the substrate.
• 1. […] PBS, Gibco Catalog # 450-1300EB • 4. 50 mM HEPES • 5. […] Purified GST fusion protein containing the Met kinase domain, Sugen, Inc. • 7. TBST Buffer. • 8. 10% aqueous (MilliQue H2O) DMSO. • 9. […] 2× Kinase Dilution Buffer: for 100 ml, mix 10 mL 1M HEPES at pH 7.5 with 0.4 mL 5% BSA/PBS, 0.2 mL 0.1 M sodium orthovanadate and 1 mL 5M sodium chloride in 88.4 mL dH2O. • 11. 4×ATP Reaction Mixture: for 10 mL, mix 0.4 mL 1 M manganese chloride and 0.02 mL 0.1 M ATP in […] dH2O. • 12. 4× Negative Controls Mixture: for 10 mL, mix 0.4 mL 1 M manganese chloride in 9.6 mL dH2O.
13. […] 500 mM EDTA. • 15. Antibody Dilution Buffer: for 100 mL, mix 10 mL 5% BSA/PBS, 0.5 mL 5% Carnation Instant Milk® in PBS and 0.1 mL 0.1 M sodium orthovanadate in 88.4 mL TBST. • 16. Rabbit polyclonal antophosphotyrosine antibody, Sugen, Inc. • 17. Goat anti-rabbit horseradish peroxidase conjugated antibody, Biosource, Inc. • 18. ABTS Solution: for 1 L, mix 19.21 g citric acid, 35.49 g Na2HPO4 and 500 mg ABTS with sufficient dH2O to make 1 L. • 19. ABTS/H2O2: mix 15 mL ABST solution with 2 μL H2O2 five minutes before use. • 20. 0.2 M HCl Procedure: • 1. Coat ELISA plates with 2 μg Poly(Glu-Tyr) in 100 μL PBS, store overnight at 4° C. • 2. Block plate with 150 μL of 5% BSA/PBS for 60 min. • 3. Wash plate twice with PBS, once with 50 mM Hepes buffer pH 7.4. • 4. Add 50 μl of the diluted kinase to all wells. (Purified kinase is diluted with Kinase Dilution Buffer. Final concentration should be 10 ng/well.) • 5. Add 25 μL of the test compound (in 4% DMSO) or DMSO alone (4% in dH2O) for controls to plate. • 6. Incubate the kinase/compound mixture for 15 minutes. • 7. Add 25 μL of 40 mM MnCl2 to the negative control wells. • 8. Add 25 μL ATP/MnCl2 mixture to the all other wells (except the negative controls). Incubate for 5 min. • 9. Add 25 μL 500 mM EDTA to stop reaction. • 10. Wash plate 3× with TBST. • 11. Add 100 μL rabbit polyclonal anti-Ptyr diluted 1:10,000 in Antibody Dilution Buffer to each well. Incubate, with shaking, at room temperature for one hour. • 12. Wash plate 3× with TBST. • 13. […] Add 100 μL per well and incubate at room temperature, with shaking, for one hour. • 14. Wash plate 1× with PBS. • 15. Add 100 μl of ABTS/H2O2 solution to each well. • 16. If necessary, stop the development reaction with the addition of […] of 0.2M HCl per well. • 17.
A general note: In an ELISA, binding on a coated surface is turned into a signal by an enzyme label.
Consider `Cc1cc(CCN2CCCC2)c(C)c2c1NC(=O)/C2=N\NC(=O)C(C)c1ccc(F)cc1` (stereo not drawn) [Example I-62, 2-(4-Fluoro-phenyl)-propionic acid [(3Z)-4,7-dimethyl-2-oxo-5-(2-pyrrolidin-1-yl-ethyl)-1,2-dihydro-indol-3-ylidene]-hydrazide], for which the half-inhibitory concentration (IC50) worked out at 980 nM.

`O=C(Cc1ccc2c(c1)OCO2)N/N=C1\C(=O)Nc2ccccc21` [Example I-23, Benzo[1,3]dioxol-5-yl-acetic acid [(3Z)-2-oxo-1,2-dihydro-indol-3-ylidene]-hydrazide] registered a 50% inhibitory concentration (IC50) of 150 nM.

`COc1cccc2c1NC(=O)/C2=N\NC(=O)Cc1ccc(O)cc1` [II-60, (4-Hydroxy-phenyl)-acetic acid [(3Z)-7-methoxy-2-oxo-1,2-dihydro-indol-3-ylidene]-hydrazide] showed a half-maximal inhibitory concentration (IC50) of 65 nM.

`O=C(Cc1ccc(F)cc1)N/N=C1\C(=O)Nc2ccc(C(=O)N3CCC(NC4CC4)CC3)c(Cl)c21` [Example I-20, (4-Fluoro-phenyl)-acetic acid [(3Z)-4-chloro-5-(4-cyclopropylamino-piperidine-1-carbonyl)-2-oxo-1,2-dihydro-indol-3-ylidene]-hydrazide]: the half-maximal inhibitory concentration (IC50) was found to be 430 nM.

In turn, `O=C(Cc1ccccc1)N/N=C1\C(=O)Nc2c(Cl)ccc(Cl)c21` [II-75, Phenyl-acetic acid [(3Z)-4,7-dichloro-2-oxo-1,2-dihydro-indol-3-ylidene]-hydrazide] showed a concentration for half-maximal inhibition (IC50) of 90 nM.

For the compound `O=C(Cc1ccc(O)c(F)c1)N/N=C1\C(=O)Nc2ccccc21` [II-43, (3-Fluoro-4-hydroxy-phenyl)-acetic acid [(3Z)-2-oxo-1,2-dihydro-indol-3-ylidene]-hydrazide], the IC50 turned out to be 54 nM.

`O=C(Cc1ccc(O)nc1)N/N=C1\C(=O)Nc2ccc(C(=O)N3CCC(NC4CC4)CC3)c(Cl)c21` [Example I-44, (6-Hydroxy-pyridin-3-yl)-acetic acid [(3Z)-4-chloro-5-(4-cyclopropylamino-piperidine-1-carbonyl)-2-oxo-1,2-dihydro-indol-3-ylidene]-hydrazide] yielded an IC50 of 570 nM.

As to `O=C1Nc2ccccc2/C1=N/NC(=O)C(O)c1ccc(O)cc1` (stereo not drawn) [Example I-3, Hydroxy-(4-hydroxy-phenyl)-acetic acid [(3Z)-2-oxo-1,2-dihydro-indol-3-ylidene]-hydrazide], the IC50 was found to be 10700 nM.

In the case of `Cn1cc(CC(=O)N/N=C2\C(=O)Nc3cc(Cl)c(C(=O)NCCN4CCOCC4)cc32)ccc1=O` [Example I-46, (3Z)-6-Chloro-3-{[2-(1-methyl-6-oxo-1,6-dihydro-pyridin-3-yl)-acetyl]-hydrazono}-2-oxo-2,3-dihydro-1H-indole-5-carboxylic acid (2-morpholin-4-yl-ethyl)-amide], inhibition was half-maximal at 5840 nM (IC50).

`O=C(Cc1ccc(O)cc1)N/N=C1\C(=O)Nc2ncccc21` [Example I-49, (4-Hydroxy-phenyl)-acetic acid [(3Z)-2-oxo-1,2-dihydro-pyrrolo[2,3-b]pyridin-3-ylidene)-hydrazide] came in with an IC50 of 230 nM.

In the case of `N#Cc1cc(CC(=O)N/N=C2\C(=O)Nc3ccc(C(=O)O)c(Cl)c32)ccc1O` [II-111, (3Z)-4-Chloro-3-{[2-(3-cyano-4-hydroxy-phenyl)-acetyl]-hydrazono}-2-oxo-2,3-dihydro-1H-indole-5-carboxylic acid], it took 3340 nM to reach half-maximal inhibition (IC50).

`O=C1Nc2c(Cl)ccc(Cl)c2/C1=N/NC(=O)C1Cc2ccccc2C1` [Example I-57]: the IC50 is more than 20000 nM.

`O=C1Nc2ccccc2/C1=N/NC(=O)C1(c2ccccc2)CC1` [Example I-6, 1-Phenyl-cyclopropanecarboxylic acid [(3Z)-2-oxo-1,2-dihydro-indol-3-ylidene]-hydrazide] returned a 50% inhibitory concentration (IC50) of more than 20000 nM.

On to `O=C(Cc1ccc(O)c(Cl)c1)N/N=C1\C(=O)Nc2ccccc21` [II-42], for which half-maximal inhibition (IC50) required 36 nM.

Compound `O=C(Cc1cccc(O)c1)N/N=C1\C(=O)Nc2ccccc21` [II-30, (3-Hydroxy-phenyl)-acetic acid [(3Z)-2-oxo-1,2-dihydro-indol-3-ylidene]-hydrazide] yielded an IC50 of 1450 nM.

As for `O=C(Cc1ccc(O)c(Cl)c1)N/N=C1\C(=O)Nc2c(Cl)ccc(Cl)c21` [II-54, (3-Chloro-4-hydroxy-phenyl)-acetic acid [(3Z)-4,7-dichloro-2-oxo-1,2-dihydro-indol-3-ylidene)-hydrazide], the 50% inhibitory concentration (IC50) is less than 9 nM.

Take `Cc1ccc(C)c2c1NC(=O)/C2=N\NC(=O)Cc1ccccc1` [II-85, Phenyl-acetic acid [(3Z)-4,7-dimethyl-2-oxo-1,2-dihydro-indol-3-ylidene]-hydrazide]: the IC50 amounted to 91 nM.

As to `COc1cc(Cl)c2c(c1Cl)/C(=N/NC(=O)C(C)c1ccc(O)cc1)C(=O)N2` (stereo not drawn) [II-113, 2-(4-Hydroxy-phenyl)-propionic acid [(3Z)4,7-dichloro-5-methoxy-2-oxo-1,2-dihydro-indol-3-ylidene)-hydrazide], half-maximal inhibition (IC50) was put at 47 nM.

For the compound `COc1ccc(CC(=O)N/N=C2\C(=O)Nc3ccc(Br)cc32)cc1OC` [II-16, (3,4-Dimethoxy-phenyl)-acetic acid [(3Z)-5-bromo-2-oxo-1,2-dihydro-indol-3-ylidene)-hydrazide], it took 18500 nM to reach half-maximal inhibition (IC50).

`Cc1cccc2c1/C(=N/NC(=O)Cc1ccc(O)cc1)C(=O)N2` [II-47, (4-Hydroxy-phenyl)-acetic acid [(3Z)-4-methyl-2-oxo-1,2-dihydro-indol-3-ylidene]-hydrazide] returned an IC50 of 22 nM.

In turn, `Cc1cn(CC(=O)N/N=C2\C(=O)Nc3c(Cl)ccc(Cl)c32)c(=O)[nH]c1=O` [II-74, (5-Methyl-2,4-dioxo-3,4-dihydro-2H-pyrimidin-1-yl)-acetic acid [(3Z)-4,7-dichloro-2-oxo-1,2-dihydro-indol-3-ylidene]-hydrazide] gave an IC50 of more than 20000 nM.

As to `CC(=O)Nc1ccc(CC(=O)N/N=C2\C(=O)Nc3ccccc32)cc1` [Example I-4, N-[4-[(3Z)-2-Oxo-1,2-dihydro-indol-3-ylidene-hydrazinocarbonylmethyl]-phenyl]-acetamide], the half-maximal inhibitory concentration (IC50) is more than 20000 nM.

`Cc1ccc(C)c2c1NC(=O)/C2=N\NC(=O)Cc1ccc(O)nc1` [II-50, (6-Hydroxy-pyridin-3-yl)-acetic acid [(3Z)-4,7-dimethyl-2-oxo-1,2-dihydro-indol-3-ylidene]-hydrazide] came in with a half-maximal inhibitory concentration (IC50) of 37 nM.

As for `O=C(CCc1ccc(O)cc1)N/N=C1\C(=O)Nc2cccc(Cl)c21` [II-83, 3-(4-Hydroxy-phenyl)-propionic acid [(3Z)-4-chloro-2-oxo-1,2-dihydro-indol-3-ylidene]-hydrazide], half-maximal inhibition (IC50) required 81 nM.

`O=C(Cc1cc(=O)[nH]cn1)N/N=C1\C(=O)Nc2ccccc21` [II-88, (6-Oxo-1,6-dihydro-pyrimidin-4-yl)-acetic acid [(3Z)-2-oxo-1,2-dihydro-indol-3-ylidene]-hydrazide] yielded an IC50 of 5990 nM.

As to `CC(C(=O)N/N=C1\C(=O)Nc2ccc(Cl)c(Cl)c21)c1ccc(O)cc1` (stereo not drawn) [II-44], the IC50 came to 22 nM.

Regarding `COc1ccc2c(c1)/C(=N/NC(=O)Cc1ccc(O)cc1)C(=O)N2` [II-98, (4-Hydroxy-phenyl)-acetic acid [(3Z)-5-methoxy-2-oxo-1,2-dihydro-indol-3-ylidene]-hydrazide], the IC50 turned out to be 89 nM.

Consider `O=C(CCc1ccccc1)N/N=C1\C(=O)Nc2c(Cl)ccc(Cl)c21` [II-84, 3-Phenyl-propionic acid [(3Z)-4,7-dichloro-2-oxo-1,2-dihydro-indol-3-ylidene]-hydrazide], for which the IC50 is more than 20000 nM.

On to `N#Cc1cc(CC(=O)N/N=C2\C(=O)Nc3ccccc32)ccc1O` [II-108, (3-Cyano-4-hydroxy-phenyl)-acetic acid [(3Z)-2-oxo-1,2-dihydro-indol-3-ylidene)-hydrazide], for which half-maximal inhibition (IC50) was put at 11900 nM.

`O=C(Cc1ccc(O)cc1)N/N=C1\C(=O)Nc2c(Cl)ccc(Cl)c21` [II-38, (4-Hydroxy-phenyl)-acetic acid [(3Z)-4,7-dichloro-2-oxo-1,2-dihydro-indol-3-ylidene]-hydrazide] came in with an IC50 of 13 nM.

Broadly, the IC50 is the concentration at which inhibition is half-maximal. Low values mean greater potency in that assay, high ones weaker potency in that assay.
